Assay results as given in patent US10660932B2, “Drug combinations and methods to stimulate embryonic-like regeneration to treat diabetes and other diseases” (UNIVERSITY OF SOUTHERN CALIFORNIA, priority 2016, dated 2020).

What was measured:
Assay type in all cases: cell-based
[1] = test system: human pancreatic islets from T1D subjects (T1DI); assay: Human pancreatic islet treatments and qPCR, T1D islets (T1DI)
Description: (§1) To investigate how the fasting mimicking conditions affect Ngn3 expression and β-cell functions in human pancreatic cells, we performed ex vivo experiments using primary human pancreatic islets (FIG. 6A). Briefly, the pancreatic islets from healthy and T1D subjects (HI and T1DI, respectively) were cultured according to the manufacturer's instructions. The cultured islets were then treated with serum from subjects enrolled in a clinical trial testing the effects of a low protein and low calorie FMD lasting 5 days (NCT02158897)^17. Serum samples were collected at baseline and at day 5 of the fasting mimicking diet in 5 subjects.
(§2) In cells from normal human subjects, these effects were reversed by IGF-1 treatment (FIG. 6G). […]
(§3) Cells were treated for 36 h with: Standard medium: Celprogen, M35002-045 for healthy islets and M35001-035 for T1D islets). […] Total RNA was extracted using RNeasy Mini kit (Qiagen) according to the manufacturer's instructions and quantified with the use of the Nanodrop system (Thermo Scientific, Waltham, Mass., USA). […] The expression level were analyzed by quantitative real-time polymerase chain reaction (PCR) on a Roche LightCycler 480II . Gene expression was quantified using the comparative Ct method.

[2] = test system: human pancreatic islets from healthy subjects (HI); assay: Human pancreatic islet treatments and qPCR, healthy islets (HI); conditions: cells from normal human subjects, STS medium with IGF-1 40 ng/ml
Description: as §1, §2, §3

[3] = test system: PKA; assay: PKA activity in human pancreatic islets; conditions: STS medium with IGF-1 40 ng/ml
Description: It also dampened the activity of mTOR, which is a key mediator of amino acid signaling (FIG. 6I). To further investigate the role of these nutrient sensing signaling pathways in regulating the expression of lineage markers (i.e. Sox2 and Ngn3), we tested the role of the Tor-S6K and PKA pathways, which function downstream of IGF-1, in the reprogramming of pancreatic cells. Human pancreatic islets cultured in standard medium were treated with rapamycin, which inhibits mTOR, and H89, which inhibits PKA. mTOR and PKA were implicated by our group and others in the regeneration of other cell types (Cheng et al., 2014; Yilmaz et al., 2012).
as §3
PKA activity was measured using the PKA kinase activity kit (Enzo Life Science, Inc. Farmingdale, N.Y., USA) according to manufacturer instructions.

In the case of `O=S(=O)(NCCNC/C=C/c1ccc(Br)cc1)c1cccc2cnccc12` [H89, reference compound], the “expression of lineage markers Sox2 and Ngn3” value ([1]; T1DI in standard medium, 36 h, Rapamycin 20 nM, H89 20 uM) is reported as “not induced”.
In the case of “IGF-1: IGF1 (40 ng/ml) (ProSpec), growth factor added to STS medium”, the “effect on STS-induced expression of Sox2, Ngn3 and insulin” value [2] is reported as “reversed”, the “effect on STS-increased insulin and Sox 2 gene expression” value ([1]; human T1D cells, STS medium with IGF-1 40 ng/ml) is reported as “reversed” and the “effect on STS-reduced PKA activity” value ([3]; T1D human islets) is reported as “reversed”. The “effect on STS-reduced PKA activity” value ([3]; healthy human islets) was “reversed”.
